The values below come from US20140024674A1, “TRPM5 INHIBITORS SUPPORT BODY WEIGHT REDUCTION WITHOUT REDUCING FOOD INTAKE” (NESTEC S.A., priority 2011, published 2014).

“Also recorded” adds a separate entry of the source.

The nature of assay [1]: Quinine-supplemented diet in wild type mice over 12 weeks: body weight, body composition (NMR), food intake. Format: in vivo. The conditions noted are these: for mean fat mass at the end of the trial: control 7.65 g±0.47. As to the method: Body composition was determined on […] mice by nuclear magnetic resonance (NMR) using an EchoMRI-900 Body Composition Analyzer (Echo Medical System, LLC, Houston, Tex., USA).
Three groups of wild type male C57BL6 mice 3 months old, 20 mice per group, were fed either a semi-synthetic (AlN) diet, or AlN diet with 0.1% quinine, or AlN diet with 0.01% quinine.
Body weight was measured weekly, body composition was measured monthly, food and fluid intake were measured twice a week over a period of 12 weeks.

Another assay has as its target T1, Trpm5 (Mus musculus, UniProt Q9JJH7).
T1 sequence (Q9JJH7 1-1158): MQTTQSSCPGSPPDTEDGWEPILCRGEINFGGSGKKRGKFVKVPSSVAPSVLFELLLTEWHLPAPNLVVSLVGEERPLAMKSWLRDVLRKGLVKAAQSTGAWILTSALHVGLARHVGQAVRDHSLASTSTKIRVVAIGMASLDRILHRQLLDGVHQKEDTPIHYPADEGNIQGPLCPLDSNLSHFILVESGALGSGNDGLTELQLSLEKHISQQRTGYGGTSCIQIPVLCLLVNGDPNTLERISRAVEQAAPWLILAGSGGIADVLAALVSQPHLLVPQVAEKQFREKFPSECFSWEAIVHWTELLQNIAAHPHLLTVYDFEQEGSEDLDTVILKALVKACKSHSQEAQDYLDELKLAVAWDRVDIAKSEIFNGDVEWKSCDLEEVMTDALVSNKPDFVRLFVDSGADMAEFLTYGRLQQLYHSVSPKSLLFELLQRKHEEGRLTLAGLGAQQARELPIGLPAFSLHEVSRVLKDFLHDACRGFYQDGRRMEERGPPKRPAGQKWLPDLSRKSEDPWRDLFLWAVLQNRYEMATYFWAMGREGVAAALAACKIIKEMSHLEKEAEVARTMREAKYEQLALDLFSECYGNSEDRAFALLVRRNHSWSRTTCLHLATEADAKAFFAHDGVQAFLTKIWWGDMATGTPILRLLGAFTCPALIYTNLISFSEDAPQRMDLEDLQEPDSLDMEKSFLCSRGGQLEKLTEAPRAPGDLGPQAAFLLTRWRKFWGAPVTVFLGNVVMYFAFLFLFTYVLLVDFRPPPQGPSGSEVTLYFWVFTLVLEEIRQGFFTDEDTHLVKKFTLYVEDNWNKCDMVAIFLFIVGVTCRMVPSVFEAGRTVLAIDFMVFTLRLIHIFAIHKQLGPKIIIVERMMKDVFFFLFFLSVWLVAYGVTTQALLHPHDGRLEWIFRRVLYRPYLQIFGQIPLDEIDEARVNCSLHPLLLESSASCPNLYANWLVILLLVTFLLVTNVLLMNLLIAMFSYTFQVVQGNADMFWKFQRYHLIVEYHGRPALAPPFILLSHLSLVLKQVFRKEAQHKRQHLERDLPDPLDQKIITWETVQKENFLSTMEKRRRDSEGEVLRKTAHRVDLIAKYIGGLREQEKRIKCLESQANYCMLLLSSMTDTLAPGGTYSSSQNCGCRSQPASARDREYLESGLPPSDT
Particulars: Talayera et al, 2008, FASEB J.; cited from earlier work.

On to `C=C[C@H]1CN2CC[C@H]1C[C@H]2[C@H](O)c1ccnc2ccc(OC)cc12` [quinine, (R)-(6-methoxyquinolin-4-yl)((2S,4S,8R)-8-vinylquinuclidin-2-yl)methanol], for which the “mean fat mass at the end of the trial” value in assay [1] (wild type male C57BL6 mice, AlN diet with 0.01% quinine, 12 weeks, NMR) amounted to 7.9675 g; in assay [1] (wild type male C57BL6 mice, AlN diet with 0.1% quinine, 12 weeks, NMR, p<0.01 compared to control), 5.524 g. For the same compound, the Body weight gain entry in assay [1] (wild type male C57BL6 mice, AlN diet with 0.01% quinine, 12 weeks, vs control diet) was “not different from control”; in assay [1] (wild type male C57BL6 mice, AlN diet with 0.1% quinine, 12 weeks, vs control diet (p<0.01)) it was “gained less weight; also recorded: significantly lower”. For the same compound, the lean mass entry in assay [1] (wild type male C57BL6 mice, diet with 0.1% or 0.01% quinine vs control diet, 12 weeks, NMR) was “no difference between groups”. The Total food intake result in assay [1] (wild type male C57BL6 mice, diet with 0.1% or 0.01% quinine vs control diet, over 12 weeks) is listed as “food intake was not different between the groups; also recorded: no difference in food intake between groups”. Also, the “fat mass gain vs control diet” value in assay [1] (wild type mice, 0.1% quinine supplemented diet, 12 weeks) is “gained less weight and fat mass”. At Trpm5, the “inhibition of Trpm5” value is “inhibitor of Trpm5”.
